Values belong to the molecule of their own block, whether it stands above or below them.
How the values were obtained:
[1] = Inhibition of 5-FAM-BH3 peptide binding to N-terminal His8-tagged human MCL-1 (209 to 327 residues)/mouse MCL-1 (152 to 189 residues) expressed in Escherichia coli BL21 (DE3) by fluorescence polarization assay
[2] = target: Bcl-2-like protein 1 (Homo sapiens) (UniProt Q07817); assay: Inhibition of 5-FAM-BH3 peptide binding to human N-terminal GST-tagged BCL-XL (1 to 212 residues) expressed in Escherichia coli BL21 (DE3) at 100 uM by fluorescence polarization assay relative to control
[3] = Inhibition of 5-FAM-BH3 peptide binding to human N-terminal GST-tagged BCL-2 (1 to 34 residues)/BCL-XL (29 to 44 residues)/BCL-2 isoform 2 (92 to 207 residues) expressed in Escherichia coli BL21 (DE3) by fluorescence polarization assay
[4] = Antiproliferative activity against human KM3 cells incubated for 72 hrs by MTT assay; format: functional, cell-based; conditions: KM3, 72 h
HepG2 [5] = assay: Antiproliferative activity against human HepG2 cells incubated for 72 hrs by MTT assay; format: functional, cell-based; conditions: HepG2, 72 h
RPMI-8226 = assay: Antiproliferative activity against human RPMI-8226 cells incubated for 72 hrs by MTT assay; format: functional, cell-based; conditions: RPMI-8226, 72 h
Jurkat = assay: Antiproliferative activity against human Jurkat cells incubated for 72 hrs by MTT assay; format: functional, cell-based
MOLT-4 = assay: Antiproliferative activity against human MOLT-4 cells incubated for 72 hrs by MTT assay; format: functional, cell-based; conditions: MOLT-4, 72 h
PC-3 = assay: Antiproliferative activity against human PC-3 cells incubated for 72 hrs by MTT assay; format: functional, cell-based; conditions: PC-3, 72 h
NCI-H1299 = assay: Antiproliferative activity against human NCI-H1299 cells incubated for 72 hrs by MTT assay; format: functional, cell-based; conditions: NCI-H1299, 72 h
KM3 = assay: Induction of apoptosis in human KM3 cells measured after 48 hrs by Annexin V-FITC/propidium iodide staining based flow cytometry; format: functional, cell-based
HepG2 [6] = assay: Induction of apoptosis in human HepG2 cells measured after 48 hrs by Annexin V-FITC/propidium iodide staining based flow cytometry; format: functional, cell-based
[7] = Induction of apoptosis in human KM3 cells assessed as viable cells at 10 uM measured after 48 hrs by Annexin V-FITC/propidium iodide staining based flow cytometry (reference value: 96.24%); format: functional; conditions: read-out: Activity
[8] = Induction of apoptosis in human KM3 cells assessed as early apoptotic cells at 10 uM measured after 48 hrs by Annexin V-FITC/propidium iodide staining based flow cytometry (reference value: 2.18%); format: functional
[9] = Induction of apoptosis in human KM3 cells assessed as late apoptotic cells at 10 uM measured after 48 hrs by Annexin V-FITC/propidium iodide staining based flow cytometry (reference value: 1.15%); format: functional
[10] = Induction of apoptosis in human KM3 cells assessed as necrotic cells at 10 uM measured after 48 hrs by Annexin V-FITC/propidium iodide staining based flow cytometry (reference value: 0.42%); format: functional
[11] = Induction of apoptosis in human KM3 cells assessed as viable cells at 20 uM measured after 48 hrs by Annexin V-FITC/propidium iodide staining based flow cytometry (reference value: 96.24%); format: functional; conditions: read-out: Activity
[12] = Induction of apoptosis in human KM3 cells assessed as early apoptotic cells at 20 uM measured after 48 hrs by Annexin V-FITC/propidium iodide staining based flow cytometry (reference value: 2.18%); format: functional
[13] = Induction of apoptosis in human KM3 cells assessed as late apoptotic cells at 20 uM measured after 48 hrs by Annexin V-FITC/propidium iodide staining based flow cytometry (reference value: 1.15%); format: functional
[14] = Induction of apoptosis in human KM3 cells assessed as necrotic cells at 20 uM measured after 48 hrs by Annexin V-FITC/propidium iodide staining based flow cytometry (reference value: 0.42%); format: functional
HepG2 [15] = assay: Induction of apoptosis in human HepG2 cells assessed as viable cells at 10 uM measured after 48 hrs by Annexin V-FITC/propidium iodide staining based flow cytometry (reference value: 96.84%); format: functional; conditions: read-out: Activity
HepG2 [16] = assay: Induction of apoptosis in human HepG2 cells assessed as early apoptotic cells at 10 uM measured after 48 hrs by Annexin V-FITC/propidium iodide staining based flow cytometry (reference value: 0.71%); format: functional
HepG2 [17] = assay: Induction of apoptosis in human HepG2 cells assessed as late apoptotic cells at 10 uM measured after 48 hrs by Annexin V-FITC/propidium iodide staining based flow cytometry (reference value: 1.93%); format: functional
HepG2 [18] = assay: Induction of apoptosis in human HepG2 cells assessed as necrotic cells at 10 uM measured after 48 hrs by Annexin V-FITC/propidium iodide staining based flow cytometry (reference value: 0.52%); format: functional
HepG2 [19] = assay: Induction of apoptosis in human HepG2 cells assessed as viable cells at 20 uM measured after 48 hrs by Annexin V-FITC/propidium iodide staining based flow cytometry (reference value: 96.84%); format: functional; conditions: read-out: Activity
HepG2 [20] = assay: Induction of apoptosis in human HepG2 cells assessed as early apoptotic cells at 20 uM measured after 48 hrs by Annexin V-FITC/propidium iodide staining based flow cytometry (reference value: 0.71%); format: functional
HepG2 [21] = assay: Induction of apoptosis in human HepG2 cells assessed as late apoptotic cells at 20 uM measured after 48 hrs by Annexin V-FITC/propidium iodide staining based flow cytometry (reference value: 1.93%); format: functional
HepG2 [22] = assay: Induction of apoptosis in human HepG2 cells assessed as necrotic cells at 20 uM measured after 48 hrs by Annexin V-FITC/propidium iodide staining based flow cytometry (reference value: 0.52%); format: functional
Homo sapiens = species on record: Homo sapiens; assay: Inhibition of 5-FAM-BH3 peptide binding to human N-terminal GST-tagged BCL-2 (1 to 34 residues)/BCL-XL (29 to 44 residues)/BCL-2 isoform 2 (92 to 207 residues) expressed in Escherichia coli BL21 (DE3) at 100 uM by fluorescence polarization assay relative to control

Chain of Bcl-2-like protein 1 (Homo sapiens) (Q07817 whole entry, the tested form may be a part, canonical isoform): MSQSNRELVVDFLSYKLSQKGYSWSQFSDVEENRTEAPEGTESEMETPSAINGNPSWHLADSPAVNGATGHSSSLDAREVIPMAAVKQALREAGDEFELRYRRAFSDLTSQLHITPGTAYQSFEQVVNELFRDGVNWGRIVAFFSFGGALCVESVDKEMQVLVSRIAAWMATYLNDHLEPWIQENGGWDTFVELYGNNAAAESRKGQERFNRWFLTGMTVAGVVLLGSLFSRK

Compound: Cc1ccc(CC(=O)N[C@@H](Cc2ccc(OCCOc3cccc4ccccc34)cc2)C(=O)NS(=O)(=O)c2ccc(Cl)c([N+](=O)[O-])c2)cc1
Ki [1]: 590 nM

inhibition [2]: > 50%
IC50 (HepG2 [5]): 11700 nM
IC50 (RPMI-8226): 7610 nM
IC50 (Jurkat): 13000 nM
IC50 (MOLT-4): 13900 nM
IC50 (PC-3): 14300 nM
IC50 (NCI-H1299): 12900 nM
Compound: Cc1cc(OCCOc2ccc(C[C@H](NC(=O)c3ccccc3)C(=O)NS(=O)(=O)c3ccc(NCCCc4ccccc4)c([N+](=O)[O-])c3)cc2)cc(C)c1Cl
Ki [1]: 270 nM
Ki [3]: 1700 nM
IC50 [4]: 7460 nM
Activity (KM3): Dose-dependent effect
Activity (HepG2 [6]): Dose-dependent effect
viability at 10 µM [7]: 83%
Activity [8]: 10.52%
Activity [9]: 5.52%
Activity [10]: 1.01%
viability at 20 µM [11]: 11.9%
Activity [12]: 17.71%
Activity [13]: 68.68%
Activity [14]: 1.73%
viability at 10 µM (HepG2 [15]): 82.3%
Activity (HepG2 [16]): 0.87%
Activity (HepG2 [17]): 11.72%
Activity (HepG2 [18]): 5.13%
viability at 20 µM (HepG2 [19]): 18.5%
Activity (HepG2 [20]): 2.25%
Activity (HepG2 [21]): 75.13%
Activity (HepG2 [22]): 4.13%

Compound: Cc1ccc(CC(=O)N[C@@H](Cc2ccc(OCCOc3cccc4ccccc34)cc2)C(=O)NS(=O)(=O)c2ccc(NCc3ccccc3)c([N+](=O)[O-])c2)cc1
Ki [1]: 760 nM

Compound: CC(C)(C)OC(=O)N[C@@H](Cc1ccc(OCCOc2ccccc2)cc1)C(=O)NS(=O)(=O)c1ccc(Cl)c([N+](=O)[O-])c1
Ki [1]: > 15000 nM

Compound: Cc1ccc(CC(=O)N[C@@H](Cc2ccc(OCCOc3ccc(Cl)cc3)cc2)C(=O)NS(=O)(=O)c2ccc(Cl)c([N+](=O)[O-])c2)cc1
Ki [1]: 1600 nM

Compound: Cc1ccc(CC(=O)N[C@@H](Cc2cc(Cl)c(OCCOc3cccc4ccccc34)c(Cl)c2)C(=O)NS(=O)(=O)c2ccc(Cl)c([N+](=O)[O-])c2)cc1
Ki [1]: 720 nM

inhibition [2]: > 50%
IC50 (HepG2 [5]): 11000 nM
IC50 (RPMI-8226): 8610 nM
IC50 (Jurkat): 21200 nM
IC50 (MOLT-4): 19700 nM
IC50 (PC-3): 9710 nM
IC50 (NCI-H1299): 22900 nM
Compound: Cc1cc(OCCCCOc2ccc(C[C@H](NC(=O)OC(C)(C)C)C(=O)NS(=O)(=O)c3ccc(NCCCc4ccccc4)c([N+](=O)[O-])c3)cc2)cc(C)c1Cl
Ki [1]: 260 nM
Ki [3]: 1200 nM
IC50 [4]: 9700 nM

Compound: Cc1ccc(CC(=O)N[C@@H](Cc2ccc(OCCOc3cccc4ccccc34)cc2)C(=O)NS(=O)(=O)c2ccc(NCCc3ccccc3)c([N+](=O)[O-])c2)cc1
Ki [1]: 470 nM

Compound: Cc1ccc(CC(=O)N[C@@H](Cc2ccc(OCCOc3cc(C)c(Cl)c(C)c3)cc2)C(=O)NS(=O)(=O)c2ccc(NCCOc3ccccc3)c([N+](=O)[O-])c2)cc1
Ki [1]: 340 nM

Compound: Cc1ccc(CC(=O)N[C@@H](Cc2cc(Br)c(OCCOc3cccc4ccccc34)c(Br)c2)C(=O)NS(=O)(=O)c2ccc(Cl)c([N+](=O)[O-])c2)cc1
Ki [1]: 970 nM

Compound: CC(C)(C)OC(=O)N[C@@H](Cc1ccc(OCCOc2cccc3ccccc23)cc1)C(=O)NS(=O)(=O)c1ccc(NCCc2ccccc2)c([N+](=O)[O-])c1
Ki [1]: 420 nM

Compound: Cc1cc(OCCOc2ccc(C[C@H](NC(=O)OC(C)(C)C)C(=O)NS(=O)(=O)c3ccc(NCCOc4ccccc4)c([N+](=O)[O-])c3)cc2)cc(C)c1Cl
Ki [1]: 670 nM

Compound: Cc1ccc(CC(=O)N[C@@H](Cc2ccc(OCCOc3cc(C)c(Cl)c(C)c3)cc2)C(=O)NS(=O)(=O)c2ccc(Cl)c([N+](=O)[O-])c2)cc1
Ki [1]: 480 nM

Compound: CC(C)(C)OC(=O)N[C@@H](Cc1cc(Cl)c(OCCOc2cccc3ccccc23)c(Cl)c1)C(=O)NS(=O)(=O)c1ccc(Cl)c([N+](=O)[O-])c1
Ki [1]: 1000 nM

Compound: CC(C)(C)OC(=O)N[C@@H](Cc1ccc(OCCOc2ccc(Cl)cc2)cc1)C(=O)NS(=O)(=O)c1ccc(Cl)c([N+](=O)[O-])c1
Ki [1]: 4800 nM

Compound: Cc1ccc(CC(=O)N[C@@H](Cc2ccc(OCCOc3ccccc3)cc2)C(=O)NS(=O)(=O)c2ccc(Cl)c([N+](=O)[O-])c2)cc1
Ki [1]: 8500 nM

Compound: Cc1cc(OCCOc2ccc(C[C@H](NC(=O)OC(C)(C)C)C(=O)NS(=O)(=O)c3ccc(Cl)c([N+](=O)[O-])c3)cc2)cc(C)c1Cl
Ki [1]: 700 nM

Compound: CC(C)(C)OC(=O)N[C@@H](Cc1ccc(OCCOc2cccc3ccccc23)cc1)C(=O)NS(=O)(=O)c1ccc(Cl)c([N+](=O)[O-])c1
Ki [1]: 5000 nM

Compound: COc1ccc(CC(=O)N[C@@H](Cc2ccc(OCCOc3cccc4ccccc34)cc2)C(=O)NS(=O)(=O)c2ccc(NCCCc3ccccc3)c([N+](=O)[O-])c2)cc1
Ki [1]: 500 nM

Compound: Cc1cc(OCCOc2ccc(C[C@H](NC(=O)OC(C)(C)C)C(=O)NS(=O)(=O)c3ccc(NCCCc4ccccc4)c([N+](=O)[O-])c3)cc2)cc(C)c1Cl
Ki [1]: 450 nM

Compound: CC(C)(C)OC(=O)N[C@@H](Cc1ccc(OCCOc2cccc3ccccc23)cc1)C(=O)NS(=O)(=O)c1ccc(NCCCc2ccccc2)c([N+](=O)[O-])c1
Ki [1]: 1100 nM

Compound: Cc1ccc(CC(=O)N[C@@H](Cc2cc(I)c(OCCOc3cccc4ccccc34)c(I)c2)C(=O)NS(=O)(=O)c2ccc(Cl)c([N+](=O)[O-])c2)cc1
Ki [1]: 570 nM

Compound: Cc1cc(OCCCCOc2ccc(C[C@H](NC(=O)OC(C)(C)C)C(=O)NS(=O)(=O)c3ccc(Cl)c([N+](=O)[O-])c3)cc2)cc(C)c1Cl
Ki [1]: 710 nM

inhibition [2]: > 50%
inhibition (Homo sapiens): > 50%
IC50 (HepG2 [5]): 12700 nM
IC50 (RPMI-8226): 7350 nM
IC50 (Jurkat): 17200 nM
IC50 (MOLT-4): 18000 nM
IC50 (PC-3): 18200 nM
IC50 (NCI-H1299): 21500 nM
Compound: Cc1ccc(CC(=O)N[C@@H](Cc2cc(I)c(OCCOc3cccc4ccccc34)c(I)c2)C(=O)NS(=O)(=O)c2ccc(NCCCc3ccccc3)c([N+](=O)[O-])c2)cc1
Ki [1]: 210 nM
IC50 [4]: 8260 nM

Compound: Cc1ccc(CC(=O)N[C@@H](Cc2ccc(OCCOc3cccc4ccccc34)cc2)C(=O)NS(=O)(=O)c2ccc(NCCCc3ccccc3)c([N+](=O)[O-])c2)cc1
Ki [1]: 440 nM

Compound: Cc1ccc(C(=O)N[C@@H](Cc2ccc(OCCOc3cccc4ccccc34)cc2)C(=O)NS(=O)(=O)c2ccc(Cl)c([N+](=O)[O-])c2)cc1
Ki [1]: 710 nM

Compound: CC(C)(C)OC(=O)N[C@@H](Cc1cc(I)c(OCCOc2cccc3ccccc23)c(I)c1)C(=O)NS(=O)(=O)c1ccc(Cl)c([N+](=O)[O-])c1
Ki [1]: 1400 nM

Compound: Cc1cc(OCCCOc2ccc(C[C@H](NC(=O)OC(C)(C)C)C(=O)NS(=O)(=O)c3ccc(Cl)c([N+](=O)[O-])c3)cc2)cc(C)c1Cl
Ki [1]: 660 nM

Compound: O=C(Cc1ccc(Cl)cc1)N[C@@H](Cc1ccc(OCCOc2cccc3ccccc23)cc1)C(=O)NS(=O)(=O)c1ccc(Cl)c([N+](=O)[O-])c1
Ki [1]: 510 nM
